{"source": "patent US20030003071A1", "about": "“Hair growth stimulant” (priority 2000, published 2003)", "key": {"[1]": {"test_system": "cultured rat hair follicle epithelial cells", "assay": "Cell proliferation test using cultured rat hair follicle epithelial cells (alamar blue)", "type": "cell-based", "settings": "object substance concentration 1.0×10^−5% in KBM medium, 2 days culture, negative control 0, positive control (insulin + hydrocortisone) 1", "from_the_text": "B. Rat Hair Follicle Epithelial Cells\n1. Collection of Rat Hair Follicle Epithelial Cells\n(1) Collection of Hair Follicles\nDorsal skin was collected from newborn (3˜4-day-old) rats, and this collected dorsal skin was soaked two pieces at a time in PBS (−) containing 1% PSF.\nLower parts such as subcutaneous fat and membranes were then removed from the dermal fat layer using dissecting scissors.\nNext, the dorsal skin was again soaked in PBS (−) containing 1% PSF, and was then soaked overnight at 4° C. in PBS (−) containing 0.25% trypsin (also containing 0.02% EDTA; likewise hereinafter). […]\nA cell freezing liquid (Cellbanker; made by DAIYATRON) was added to the hair follicle epithelial cells, the concentration was adjusted to 1.5×10^7 cells/ml, 1.5×10^7 cells were put into each freezing tube, and storage was carried out by freezing. The number of cells was calculated using a haemacyto meter. […]"}, "[2]": {"test_system": "immortalized outer hair root sheath cells", "assay": "Immortalized outer hair root sheath cell proliferation test (cellular DNA, Hoechst 33258)", "type": "cell-based, human", "settings": "10 nM, 1 μM, 100 μM or 10 mM in KBM; 4 days culture; negative control = 100", "protocol": "<Immortalized Outer Hair Root Sheath Cell Proliferation Tests>\n[Culturing of Immortalized Outer Hair Root Sheath Cells]\nHair follicles were isolated from human scalp skin using scissors under a stereoscopic microscope. The hair follicles were cut off at the lower part of the sebaceous gland, and enzyme treatment was carried out with collagenase and dispase.\nThe hair bulb was cut off with scissors and excluded, and the hair shaft was separated with tweezers.\nThe hair shaft was subjected to enzyme treatment with trypsin, and then the reaction was stopped with trypsin inhibitor.\nCentrifuging was carried out, the supernatant was thrown away, and the outer hair root sheath cells were recovered. […]\nFirst generation cultured outer hair root sheath cells cultured until the cloning confluence of the cells was about 50% were washed with K-SFM, and then infection was carried out by adding the above-mentioned virus in a quantity of 1, 10 or 30 MOI (multiplicity of infection). […]\nThe cells were thawed, and were then added to each […], and smashed up with sonication. The cells were then transferred into a cuvette, and the fluorescence intensity was measured at an excitation wavelength of 356 nm and a fluorescence wavelength of 460 nm."}, "[3]": {"test_system": "cultured human hair follicle epithelial cells", "assay": "Cell proliferation test using cultured human hair follicle epithelial cells (alamar blue)", "type": "cell-based", "settings": "object substance concentration 1.0×10^−5% in KBM medium, 2 days culture, negative control 0, positive control (insulin + hydrocortisone) 1", "protocol": "<Cell Proliferation Tests Using Cultured Hair Follicle Epithelial Cells>\nA. Human Hair Follicle Epithelial Cells\n1. Collection of Human Hair Follicle Epithelial Cells\nHair follicles in the growth period of the hair cycle were collected mechanically under a stereoscopic microscope from male human scalp skin obtained as a by-product from surgery.\nThe growth period hair follicles were treated for 30 minutes at 37° C. with Dulbecco's modified MEM (DMEM) containing 1000 U/ml dispase and 0.2% collagenase, and the dermal sheath, dermal papilla and hair bulb epithelial tissue were removed using the tip of an injection needle, and then treatment was carried out for 5 minutes at 37° C. with a phosphate buffer solution (PBS(−); ‘(−)’ means not containing calcium ions, magnesium ions etc.) containing 0.05% trypsin and 0.02% EDTA. […]\nNext, the cells were suspended in the above-mentioned serum-free medium, sowing was carried out in a collagen-coated (type I) culture dish at a density of 5000 cells/cm^2, medium exchange was carried out every 2 days until the cells became subconfluent, and then treatment was again carried out for 5 minutes at 37° C. with 0.05 wt % trypsin and 0.02% EDTA, the reaction was then stopped with an equivalent of 0.1% trypsin inhibitor, and centrifuging (800×g, 5 minutes) was carried out. […] The number of cells was calculated using a haemacyto meter. […]"}}, "data": [{"compound": "CNCCS(=O)(=O)O", "note": "[N-methyltaurine]", "values": [{"measurement": "Cell proliferation effect (cell proliferation index)", "setting": "[1]", "result": 0.62}, {"measurement": "Immortalized outer hair root sheath cell activation action (extent of cell proliferation, relative DNA amount, FIG. 1)", "setting": "[2]", "result": "has an immortalized outer hair root sheath cell activation action"}, {"measurement": "Cell proliferation effect (cell proliferation index)", "setting": "[3]", "result": 0.64}]}]}
